Source: US10947226B2, “Bicyclic pyridone lactams and methods of use thereof” (Genentech, Inc., priority 2016, dated 2021)

target: human RIP1 kinase domain (2-375) (Homo sapiens (Human), UniProt Q13546); assay: RIP1 kinase inhibition assay (biochemical, Transcreener ADP fluorescence polarization); settings: Ki app (Morrison tight-binding fit); 50 nM enzyme, 50 μM ATP, 2 hours incubation, pH 7.5
Description: RIP1 Kinase Inhibition Assays (Biochemical Assay)
The compounds of the present invention were tested for their capacity to inhibit RIP1K activity as described below.
Enzyme assay: The ability of the receptor interacting protein kinase (RIPK1) to catalyze the hydrolysis of adenosine-5′-triphosphate (ATP) is monitored using the Transcreener ADP (adenosine-5′-diphosphate) assay (BellBrook Labs). Purified human RIP1 kinase domain (2-375) (50 nM) derived from a baculovirus-infected insect cell expression system is incubated with test compounds for 2 hours in 50 mM Hepes buffer (pH 7.5) containing 30 mM MgCl2, 1 mM dithiothreitol, 50 μM ATP, 0.002% Brij-35, and 0.5% dimethyl sulfoxide (DMSO). Reactions are quenched by the addition of 1× Bell Brooks Stop buffer B (20 mM Hepes (ph 7.5), 40 mM ethylenediaminetetraacetic acid and 0.02% Brij-35) containing an additional 12 mM EDTA and 55 μg/mL ADP2 antibody and 4 nM ADP-AlexaFluor® 633 tracer. The tracer bound to the antibody is displaced by the ADP generated during the RIP1K reaction, which causes a decrease in fluorescence polarization that is measured by laser excitation at 633 nm with a FP microplate reader M1000. Fractional activity was plotted against test article concentration. Using Genedata Screener software (Genedata; Basel, Switzerland), the data were fit to the tight-binding apparent inhibition constant (Ki^app) Morrison equation [Williams, J. W. and Morrison, J. F. (1979) The kinetics of reversible tight-binding inhibition. Methods Enzymol 63: 437-67]. The following equation was used to calculate fractional activity and Ki^app: […]
where [E]T and [I]T are the total concentrations of active enzyme and test article, respectively. […]

Chain of human RIP1 kinase domain (2-375) (Q13546 2-375): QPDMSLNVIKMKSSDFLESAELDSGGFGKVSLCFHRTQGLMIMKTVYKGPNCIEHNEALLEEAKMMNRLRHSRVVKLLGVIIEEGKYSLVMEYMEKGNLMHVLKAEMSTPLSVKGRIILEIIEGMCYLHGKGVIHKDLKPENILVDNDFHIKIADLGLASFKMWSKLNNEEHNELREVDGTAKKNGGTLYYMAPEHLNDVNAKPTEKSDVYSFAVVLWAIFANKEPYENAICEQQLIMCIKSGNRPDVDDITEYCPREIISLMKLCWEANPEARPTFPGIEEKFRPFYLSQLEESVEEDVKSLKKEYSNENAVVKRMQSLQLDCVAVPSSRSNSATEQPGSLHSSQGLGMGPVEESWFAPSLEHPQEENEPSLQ

| SMILES | Ki [nM] |
| --- | --- |
| CN1C(=O)[C@@H](NC(=O)c2ncn(Cc3ccccc3)n2)CCc2c1ccc(=O)n2C (single isomer, unassigned) [Example 1] | 233 |
| CN1C(=O)[C@@H](NC(=O)c2ncn(Cc3ccccc3F)n2)CCc2c1ccc(=O)n2C (single isomer, unassigned) [Example 2] | 156 |
| CN1C(=O)[C@@H](NC(=O)c2ncn(Cc3ccccc3)n2)CCn2c1cccc2=O (single isomer, unassigned) [Example 3] | 489 |
| CN1C(=O)[C@@H](NC(=O)c2ncn(Cc3ccccc3F)n2)CCn2c1cccc2=O (single isomer, unassigned) [Example 4] | 290 |
| CN1C(=O)[C@@H](NC(=O)c2ncn(Cc3ccccc3)n2)CCc2cn(C)c(=O)cc21 (single isomer, unassigned) [Example 5] | 79 |
| CN1C(=O)[C@@H](NC(=O)c2ncn(Cc3ccccc3F)n2)CCc2cn(C)c(=O)cc21 (single isomer, unassigned) [Example 6] | 49 |
| CN1C(=O)[C@@H](NC(=O)c2ncn(Cc3ccccc3)n2)CCc2cc(=O)n(C)cc21 (single isomer, unassigned) [Example 7] | 173 |
| CN1C(=O)[C@H](NC(=O)c2ncn(Cc3ccccc3)n2)CCc2cc(=O)n(C)cc21 (single isomer, unassigned) [Example 8] | > 10000 |
| CN1C(=O)[C@@H](NC(=O)c2ncn(Cc3ccccc3F)n2)CCc2cc(=O)n(C)cc21 (single isomer, unassigned) [Example 9] | 111 |
| CN1C(=O)[C@H](NC(=O)c2ncn(Cc3ccccc3F)n2)CCc2cc(=O)n(C)cc21 (single isomer, unassigned) [Example 10] | > 10000 |
| CN1C(=O)[C@@H](NC(=O)c2nc3n(n2)[C@H](c2ccccc2F)CC3)CCc2cc(=O)n(C)cc21 (single isomer, unassigned) [Example 11] | 231 |
| CN1C(=O)[C@H](NC(=O)c2nc3n(n2)[C@H](c2ccccc2F)CC3)CCc2cc(=O)n(C)cc21 (single isomer, unassigned) [Example 12] | > 10000 |
| CN1C(=O)[C@@H](NC(=O)c2nc3n(n2)[C@H](c2ccccc2F)CC3)CCc2cn(CC3CC3)c(=O)cc21 (single isomer, unassigned) [Example 14] | 56 |
| CN1C(=O)[C@@H](NC(=O)c2ncn(Cc3ccccc3F)n2)CCc2cn(CC3CC3)c(=O)cc21 (single isomer, unassigned) [Example 15] | 39 |
| CN1C(=O)[C@H](NC(=O)c2nc3n(n2)[C@H](c2ccccc2F)CC3)CCc2cn(CC3CC3)c(=O)cc21 (single isomer, unassigned) [Example 16] | 6900 |
| CN1C(=O)[C@H](NC(=O)c2ncn(Cc3ccccc3F)n2)CCc2cn(CC3CC3)c(=O)cc21 (single isomer, unassigned) [Example 17] | 6900 |
| CCn1cc2c(cc1=O)N(C)C(=O)[C@@H](NC(=O)c1nc3n(n1)[C@H](c1ccccc1F)CC3)CC2 (single isomer, unassigned) [Example 18] | 110 |
| CCn1cc2c(cc1=O)N(C)C(=O)[C@@H](NC(=O)c1ncn(Cc3ccccc3F)n1)CC2 (single isomer, unassigned) [Example 19] | 110 |
| CCn1cc2c(cc1=O)N(C)C(=O)[C@H](NC(=O)c1nc3n(n1)[C@H](c1ccccc1F)CC3)CC2 (single isomer, unassigned) [Example 20] | > 10000 |
| CCn1cc2c(cc1=O)N(C)C(=O)[C@H](NC(=O)c1ncn(Cc3ccccc3F)n1)CC2 (single isomer, unassigned) [Example 21] | > 10000 |
| CN1C(=O)[C@H](NC(=O)c2ncn(Cc3ccccc3F)n2)CCc2c1ccc(=O)n2C (single isomer, unassigned) [Example 22] | > 10000 |
| CN1C(=O)[C@H](NC(=O)c2ncn(Cc3ccccc3)n2)CCc2c1ccc(=O)n2C (single isomer, unassigned) [Example 23] | > 10000 |
| CN1C(=O)[C@@H](NC(=O)c2nc3n(n2)[C@H](c2ccccc2F)CC3)CCc2cn(C)c(=O)cc21 [Example 13, (5S)-5-(2-fluorophenyl)-N-[(3S)-1,7-dimethyl-2,8-dioxo-4,5-dihydro-3H-pyrido[4,3-b]azepin-3-yl]-6,7-dihydro-5H-pyrrolo[1,2-b][1,2,4]triazole-2-carboxamide] | 81.1 |
